Data taken from US6462043B1 (dated 2002).

| Structure (SMILES) | melting point |
| --- | --- |
| CCCOCCCN1CN(C)/C(=N/[N+](=O)[O-])N(Cc2ccc(Cl)nc2)C1 | 70 to 72 °C |
| CN/C(=N/[N+](=O)[O-])NCc1cnc(Cl)c(Cl)c1 | 173 to 174 °C |
